Literature values in patent publication US11913924B2, “Ion generation using modified wetted porous materials” (Purdue Research Foundation, priority 2011, dated 2024).
Read-outs that look alike come from different tables or passages of the source.

What was measured:
[1] = in vivo
[2] = therapeutic windows listed in Table 6

Row | SMILES | Therapeutic range [2] | also measured
1 | CN(C)CCCC1(c2ccc(F)cc2)OCc2cc(C#N)ccc21 (stereo not shown) [citalopram] | 10 to 200 ng/mL | 
2 | O=P1(N(CCCl)CCCl)NCCCO1 (stereo not shown) [Cyclophosphamide, cyclophosphamide] |  | Therapeutic range (plasma concentrations, Regenthal et al., J. Clin. Monitor Comp. 1999): 10000 to 25000 ng/mL
3 | CCN(CC)CC(=O)Nc1c(C)cccc1C [lidocaine] | 1,000-6,000 ng mL^−1 | 
4 | CN1CCCC1c1cccnc1 (stereo not shown) [nicotine] |  | half-life [1]: about 2 hours
5 | CN(C)CCC=C1c2ccccc2CCc2ccccc21 [amitriptyline] | 50 to 200 ng/mL | 
6 | CN1C(=O)CC[C@H]1c1cccnc1 [cotinine] |  | half-life [1]: about 16 hours
7 | CCN(CC)CCNC(=O)c1c(C)[nH]c(/C=C2\C(=O)Nc3ccc(F)cc32)c1C [sunitinib] | 20 to 200 ng/mL | 
